Legend:
HepG2 cells = experiment: MitoBiogenesis In-Cell ELISA (COX-I, SDH-A); format: cell-based; settings: Homo sapiens, 168 h, 7 days, read-out: % increase in Mitochondrial Biogenesis
Outline: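 HepG2 cells were plated, adhered overnight at 37 °C/5% CO2, then exposed to test compounds (50–10 μM) in DMEM with 10% FBS for 7 days without media change; vehicle was 0.2% DMSO. COX-I and SDH-A were measured by in-cell ELISA and reported as signal relative to vehicle, n=2.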

[1] = tested on: Keratinocytes co-cultured with dermal fibroblast (KF3CT system); experiment: BioMAP KF3CT system (IL-1β, TNFα, IFNγ, TGFβ); format: cell-based, human; settings: for % increase in MCP-1: procedure of Example 834
Protocol: The BioMAP platform (BioMAP® Diversity PLUS® Panel from Eurofins) is an in vitro phenotypic profiling technology that screened the compounds of the present disclosure (hereafter indicated as test agents) in human primary cell-based systems modelling complex tissue and disease states. The BioMAP assays were performed using the Eurofin's BioMAP Technology Platform as (see references 1 to 13 in the example 824 section) to model different diseases on primary cell-based model systems. These systems consisted of either single primary cell types or co-culture cells. Adherent cell types were cultured or co-cultured in 96 or 384-well plates until confluence followed by the addition of compounds prepared in DMSO at a final concentration of ≤0.1%. In each cell-based system, primary cells from heathy donors (2-6 donors) were pooled and treated with compounds at 1 and 10 μM dose 1h prior to stimulation and remain in culture as indicated in Example 825, Example 826, Example 827, Example 828, Example 829, Example 830, Example 831, Example 832, Example 833, Example 834, Example 835, Example 836 and Example 837. For on the BioMAP® Diversity PLUS® Panel, please see the following references, which are incorporate herein.
Following the general procedure as described in Example 824, Keratinocytes were co-cultured with dermal fibroblast (KF3CT system) and treated with IL-1β, TNFα, IFNγ and TGFβ for 24h in the presence or absence of the compounds to model psoriasis, dermatitis and skin biology. Biomarkers read out were; MCP-1, ICAM-1, IP-10, IL-8, MIG, IL-1α, MMP-9, PAI-1, SRB, TIMP-2, uPA.

[2] = tested on: tyrosine hydroxylase positive mesencephalic neurons injured by MPP+; experiment: Neuroprotective effect on damage induced by MPP+ on culture of mesencephalic neurons; format: cell-based; settings: Rattus norvegicus, Neuron, MPP+ 50 μM, 48h, read-out: % reversion of TH positive neurons (MPTP-mediated degradation of dopaminergic neurons)
Text: A female Wistar rat (Janvier; France) of 15 days gestation was terminated by cervical dislocation, the fetuses were removed from the uterus and their brains were harvested and placed in ice-cold medium (Leibovitz's L15 medium, Gibco). Only ventral mesencephalic flexure was used for the cell preparations. The midbrain was dissociated by trypsinization. The reaction was stopped, and the suspension was triturated and centrifuged. The pellet of dissociated cells was resuspended in chemically defined medium consisted of Neurobasal (Gibco), containing B27 supplement (Gibco) and L-glutamine (Gibco), 10 ng/ml (BDNF; Pepro Tech, France) and 1 ng/ml (GDNF; Pepro Tech).
Viable primary rat embryo mesencephalic cells were counted and seeded on 96-multi-wells plate precoated with poly-L-lysine. Cells were maintained in a humidified incubator at 37° C. in 5% CO2-95% air atmosphere and medium changed on day 2. On day 6, the culture medium was removed and replaced by new media without neurotrophic factors containing the compounds of the present disclosure (50-10 μM) or vehicle (0.1% DMSO). After 1h exposure, injury of mesencephalon neuronal cultures was induced by MPP^+ (50 μM) for further 48h. A mixture of the growth factors GDNF (1 ng/ml) and BDNF (10 ng/ml) were used as reference compound. On day 8, the tyrosine hydroxylase positive neurons were evaluated. Cultures were fixed 30 min at 4° C. with paraformaldehyde in PBS (4%, Thermo Scientific, 28908). After, cells were permeabilized with 0.1% Triton X100 for 30 min, saturated with PBS containing 3% of BSA (bovine serum albumin) and incubated 2h with anti-tyrosine hydroxylase antibody (Sigma, 1:10000; clone TH-2) at 1/10000 in PBS containing 0.5% of BSA. Cells were washed three times with PBS containing 0.5% of BSA and incubated 1h with goat anti mouse antibody coupled with AF488 (Invitrogen A11001) diluted at 1/1000 in PBS containing 0.5% of BSA. Finally, nuclei were stained with DAPI at 1/1000 in PBS containing 0.5% of BSA. After rinsing with PBS, the plate was visualized and examined with Cell Insight HCS (Thermo Scientific) to determine the number of tyrosine hydroxylase positive cells per well.
The results for each well were expressed as a percentage by setting the density of tyrosine hydroxylase positive cells under control conditions to 100%. Then the result for each condition was reported as mean±SEM from 4 independent cultures.
A global analysis of the data was performed using a one-way analysis of variance (ANOVA), followed by Fisher's Protected Least Significant Difference when applicable. The level of significance was set to p<0.05.

[3] = tested on: Bronchial epithelial cells co-cultured with dermal fibroblast (BF4T system); experiment: BioMAP BF4T system (TNFα and IL-4); format: cell-based, human; settings: for activation at 10 µM / activation at 1 µM: Homo sapiens, 24 h, read-out: % increase in VCAM-1
[4] = 10 uM, procedure of Example 830

C/C=C/C(=O)SCCNC(=O)CCNC(=O)[C@H](O)C(C)(C)COP(=O)(O)O [Compound 82, (R)—S-(2-(3-(2-hydroxy-3,3-dimethyl-4-(phosphonooxy)butanamido)propanamido)ethyl) (E)-but-2-enethioate]
activation at 50 µM (HepG2 cells): > 10%

CC(C)C(=O)CC(=O)SCCNC(=O)CCNC(=O)[C@H](O)C(C)(C)CO [Compound 1239, (R)—S-(2-(3-(2,4-dihydroxy-3,3-dimethylbutanamido)propanamido)ethyl) 4-methyl-3-oxopentanethioate]
activation at 10 µM (HepG2 cells): > 5%

C[C@@H](O)CC(=O)CC(=O)SCCNC(=O)CCNC(=O)[C@H](O)C(C)(C)CO [Compound 42, (2R)-2,4-dihydroxy-N-[2-[(2-[[(5R)-5-hydroxy-3-oxohexanoyl]sulfanyl]ethyl)carbamoyl]ethyl]-3,3-dimethylbutanamide]
% increase in MCP-1 ([1]; 10 uM): ≥10%
inhibition at 10 µM [2]: ≥ 60%
% decrease in IL-1α ([3]; 10 uM): ≥10%
% increase in Eotaxin-3 [3, 4]: ≥10%
% increase in MMP-3 [3, 4]: ≥10%
% increase in keratin 8/18 [3, 4]: ≥10%
activation at 10 µM [3, 4]: ≥ 10%

COC(=O)CCC(=O)SCCNC(=O)CCNC(=O)[C@H](OC(=O)CNC(C)=O)C(C)(C)CO [Compound 1298, methyl 4-[(2-[3-[(2R)-2-[(2-acetamidoacetyl)oxy]-4-hydroxy-3,3-dimethylbutanamido]propanamido]ethyl)sulfanyl]-4-oxobutanoate]
activation at 10 µM [3, 4]: ≥ 10%

CC(C)(CO)[C@@H](O)C(=O)NCCC(=O)NCCSC(=O)CCC(=O)O [Compound 1, (R)-4-((2-(3-(2,4-dihydroxy-3,3-dimethylbutanamido)propanamido)ethyl)thio)-4-oxobutanoic acid]
inhibition at 10 µM [2]: ≥ 30%

CCC(C)C(=O)CC(=O)SCCNC(=O)CCNC(=O)[C@H](O)C(C)(C)CO (stereo partly drawn) [Compound 1240, S-(2-(3-((R)-2,4-dihydroxy-3,3-dimethylbutanamido)propanamido)ethyl) 4-methyl-3-oxohexanethioate]
activation at 50 µM (HepG2 cells): > 20%

COC(=O)CCC(=O)SCCNC(=O)CCNC(=O)[C@H](O)C(C)(C)COC(C)=O [Compound 138]
% increase in SRB ([1]; 10 uM): ≥10%

COC(=O)C(C)C(=O)SCCNC(=O)CCNC(=O)[C@H](O)C(C)(C)CO (some centres unmarked) [Compound 405]
activation at 50 µM (HepG2 cells): > 5%

COC(=O)CCC(=O)SCCNC(=O)CCNC(=O)[C@H](OC(=O)CN)C(C)(C)CO [Compound 1294, methyl 4-[(2-[3-[(2R)-2-[(2-aminoacetyl)oxy]-4-hydroxy-3,3-dimethylbutanamido]propanamido]ethyl)sulfanyl]-4-oxobutanoate]
% decrease in MMP-9 ([1]; 1 uM): ≥10%
% increase in IL-1α ([1]; 10 uM): ≥10%
% decrease in tPA [3, 4]: ≥10%

COC(=O)CC(C(C)=O)C(=O)SCCNC(=O)CCNC(=O)[C@H](O)C(C)(C)CO (some centres unmarked) [Compound 410]
inhibition at 10 µM [2]: ≥ 60%

CC(=O)SCCNC(=O)CCNC(=O)[C@H](O)C(C)(C)COC(=O)[C@H](C)N [Compound 502, (3R)-3-[(2-[[2-(acetylsulfanyl)ethyl]carbamoyl]ethyl)carbamoyl]-3-hydroxy-2,2-dimethylpropyl (2S)-2-aminopropanoate]
% decrease in IL-1α ([3]; 10 uM): ≥10%
activation at 1 µM ([3]; 1 uM, procedure of Example 830): ≥ 10%

CC(O)C(C(=O)SCCNC(=O)CCNC(=O)[C@H](O)C(C)(C)CO)C(C)O (stereo partly drawn) [Compound 1285, (2R)-2,4-dihydroxy-N-[2-[(2-[[3-hydroxy-2-(1-hydroxyethyl)butanoyl]sulfanyl]ethyl)carbamoyl]ethyl]-3,3-dimethylbutanamide]
activation at 50 µM (HepG2 cells): > 10%

C[C@@H](O)CC(=O)SCCNC(=O)CCNC(=O)[C@H](O)C(C)(C)CO [Compound 38, S-2-{3-[(R)-2,4-dihydroxy-3,3-dimethylbutyrylamino]propionylamino} ethyl (R)-3-hydroxybutanethioate]
inhibition at 10 µM [2]: ≥ 60%

COC(=O)CC(SCCNC(=O)CCNC(=O)[C@H](O)C(C)(C)COC(C)=O)C(=O)OC (stereo partly drawn) [Compound 149, 1,4-dimethyl 2-[(2-[3-[(2R)-4-(acetyloxy)-2-hydroxy-3,3-dimethylbutanamido]propanamido]ethyl)sulfanyl]butanedioate]
% decrease in MMP-9 ([3]; 1 uM, procedure of Example 830): ≥10%
% increase in Eotaxin-3 [3, 4]: ≥10%
activation at 10 µM [3, 4]: ≥ 10%

CC(C)(CO)[C@@H](OC(=O)CCC(=O)O)C(=O)NCCC(=O)NCCS [Compound 1311, (R)-4-((4-hydroxy-1-((3-((2-mercaptoethyl)amino)-3-oxopropyl)amino)-3,3-dimethyl-1-oxobutan-2-yl)oxy)-4-oxobutanoic acid]
activation at 10 µM (HepG2 cells): 5%

CCCCCCC(=O)SCCNC(=O)CCNC(=O)[C@H](O)C(C)(C)CO [Compound 372, (2R)—N-(2-[[2-(heptanoylsulfanyl)ethyl]carbamoyl]ethyl)-2,4-dihydroxy-3,3-dimethylbutanamide]
activation at 1 µM ([3]; 1 uM, procedure of Example 830): ≥ 10%

CC(=O)OCC(C)(C)[C@@H](O)C(=O)NCCC(=O)NCCSC(=O)CC(=O)CCC(=O)O [Compound 140, 6-[(2-[3-[(2R)-4-(acetyloxy)-2-hydroxy-3,3-dimethylbutanamido]propanamido]ethyl)sulfanyl]-4,6-dioxohexanoic acid]
inhibition at 10 µM [2]: ≥ 60%

CC(=O)OCC(C)(C)[C@@H](OC(C)=O)C(=O)NCCC(=O)NCCSC(C)=O [Compound 1264, (1R)-3-(acetyloxy)-1-[(2-[[2-(acetylsulfanyl)ethyl]carbamoyl]ethyl)carbamoyl]-2,2-dimethylpropyl acetate]
% decrease in IL-1a ([1]; 1 uM): ≥10%
% increase in MCP-1 ([1]; 1 uM): ≥10%
activation at 1 µM ([3]; 1 uM, procedure of Example 830): ≥ 10%

CC(C)(COC(=O)OCC[N+](C)(C)C)[C@@H](O)C(=O)NCCC(=O)NCCSC(=O)CCC(=O)O [Compound 116, [2-([[(3R)-3-[[2-([2-[(3-carboxypropanoyl)sulfanyl]ethyl]carbamoyl)ethyl]carbamoyl]-3-hydroxy-2,2-dimethylpropoxy]carbonyl]oxy)ethyl]trimethylazanium]
inhibition at 10 µM [2]: ≥ 30%
% increase in MMP-3 ([3]; 1 uM, procedure of Example 830): ≥10%
% increase in keratin 8/18 ([3]; 1 uM, procedure of Example 830): ≥10%
% decrease in IL-1α ([3]; 10 uM): ≥10%
activation at 10 µM [3, 4]: ≥ 10%

COC(=O)CCC(=O)SCCNC(=O)CCNC(=O)[C@H](O)C(C)(C)CO [Compound 4, Methyl (R)-4-((2-(3-(2,4-dihydroxy-3,3-dimethylbutanamido)propanamido)ethyl)thio)-4-oxobutanoate]
activation at 50 µM (HepG2 cells): > 5%

CC(=O)SCCNC(=O)CCNC(=O)[C@H](O)C(C)(C)COC(=O)CN [Compound 560, (3R)-3-[(2-[[2-(acetylsulfanyl)ethyl]carbamoyl]ethyl)carbamoyl]-3-hydroxy-2,2-dimethylpropyl 2-aminoacetate]
inhibition at 10 µM [2]: ≥ 30%
